Experimental data taken from publication PMC10720383, “Acetylcholinesterase Inhibition in Rats and Humans Following Acute Fenitrothion Exposure Predicted by Physiologically Based Kinetic Modeling-Facilitated Quantitative In Vitro to In Vivo Extrapolation” (Environmental Science & Technology, 2023).
Read-outs that look alike come from different tables or passages of the source.

How the values were obtained:
erythrocyte AChE [1] = test: PBK modeling-facilitated QIVIVE and BMD analysis, rat; conditions: erythrocyte AChE inhibition, acute oral FNT exposure
Protocol: For toxicity prediction, the maximum blood FNO concentration was used as a dose metric relating AChE inhibition to acute FNT exposure (see section 3.3). Since the in vitro AChE inhibition under increasing FNO concentrations was tested in rat and human blood, these nominal concentrations could be used directly as the biological effective concentrations (in vivo maximum blood FNO concentrations), and no extra correction for differences in in vitro and in vivo protein binding was deemed necessary. Then the corresponding FNT dose levels resulting in these in vivo concentrations were derived via PBK modeling-facilitated reverse dosimetry. In doing so, the in vitro concentration–response relationship was converted to the predicted in vivo dose-dependent erythrocyte AChE inhibition, which was then compared to available in vivo toxicity data in rats and humans.[8],[39]
BMD modeling was used to derive POD values from the predicted in vivo dose-dependent data sets for rats and humans. A BMD value resulting in a 10% benchmark response (BMR) change with lower 95% confidence limit was defined as BMDL10, and the obtained values for rats and humans were evaluated against the reported NOAELs.[1],[11]−[13] Details and results of BMD analysis are provided in the Supporting Information. […]
BMD modeling was used to derive POD values from the predicted in vivo dose-response curves for rats and humans. […]

erythrocyte AChE [2] = test: Reported NOAELs from in vivo rat toxicity studies
Protocol: Acute exposure to FNT will cause neurotoxic symptoms in mammals due to AChE inhibition and subsequent acetylcholine accumulation at synaptic clefts.[10] Several no-observed-adverse-effect levels (NOAELs) derived from different in vivo rat or human toxicity data sets have been reported by different organizations, even though the same endpoint (erythrocyte AChE inhibition) was chosen. Specifically, NOAELs of 0.25 and 1.3 mg/kg BW for rats have been set by the US Environmental Protection Agency (US EPA)[11] and European Food Safety Authority (EFSA),[1] respectively, and NOAELs of 0.33 and 0.36 mg/kg BW for humans have been derived by Australian Pesticides and Veterinary Medicines Authority (APVMA)[12] and the Joint Food and Agriculture Organization of the United Nations/World Health Organization Meeting on Pesticide Residues (JMPR),[13] respectively. […]
A NOAEL of 1.3 mg/kg BW was reported by EFSA[1] from a 90 day rat study[44] considering the impaired body weight gain and reduction in erythrocyte and brain cholinesterase activity as the critical effects. The US EPA[11] reported a 5.2-fold lower NOAEL (0.25 mg/kg BW) based on the measured erythrocyte AChE inhibition after 2 weeks of FNT dosing in a 92 week rat study.[45] […]

erythrocyte AChE [3] = conditions: human, highest dose tested, cited from earlier work
erythrocyte AChE [4] = conditions: cited from earlier work
[5] = humans, oral exposure; cited from earlier work

**Q.** Which results are given for `COP(=S)(OC)Oc1ccc([N+](=O)[O-])c(C)c1` [FNT, O,O-dimethyl O-4-nitro-m-tolyl phosphorothioate]?
**A.** predicted BMDL10 (POD) (erythrocyte AChE [1]; 10% BMR, lower 95% confidence limit): 1.30 mg/kg BW; BMDU10 (erythrocyte AChE [1]; upper confidence limit): 1.71 mg/kg BW; US EPA rat NOAEL, fold lower than EFSA rat NOAEL (erythrocyte AChE [2]): 5.2 fold; reported NOAEL (erythrocyte AChE [3]; APVMA, single dose human study): 0.33 mg/kg BW; reported NOAEL (erythrocyte AChE [3]; JMPR, 4 day study in human volunteers): 0.36 mg/kg BW; acute reference dose (ARfD) (erythrocyte AChE [4]; JMPR): 0.04 mg/kg BW/day; acute reference dose (ARfD) (erythrocyte AChE [4]; US EPA): 0.0025 mg/kg BW/day; fraction of the dose absorbed (Fa) [5]: 0.7
